The values that follow come from patent US9630965B2, “Fused amino pyridine as HSP90 inhibitors” (Curis, Inc., priority 2007, dated 2017).

Molecules are shown by their SMILES. A value given as a limit tells only on which side of the number the result lay.

One test concerns the target T1, HSP90 (Homo sapiens (Human), UniProt P07900). Briefly: HSP90 competition binding (fluorescence polarization) assay with FITC labeled GM. Conditions: 24 hours of incubation at 4° C. The text has this: (b) HSP90 Competition Binding (Fluorescence Polarization) Assay.
A fluorescein isothiocyanate (FITC) labeled GM was purchase from InvivoGen (ant-fgl-1). The interaction between HSP90 and labeled GM forms the basis for the fluorescence polarization assay. A free and fast-tumbling FITC labeled GM emits random light with respect to the plane of polarization plane of excited light, resulting in a lower polarization degree (mP) value. When GM is bound to HSP90, the complex tumble slower and the emitted light is polarized, resulting in a higher mP value. […] The assay buffer contained 20 mM HEPES (pH 7.3), 50 mM KCl, 1 mM DTT, 50 mM MgCl2, 20 mM Na2MoO4, 0.01% NP40 with 0.1 mg/ml bovine gamma-globulin.
(In fluorescence polarisation assays a small probe gives low polarisation when free and higher when bound to something large.)
In general, IC50 refers to the concentration that inhibits the measured activity by half. Lower therefore signals greater potency in that assay. With `C#CCCCn1c(Sc2ccc3c(c2)CCO3)nc2c(N)nccc21` [Compound 9, 2-(2,3-dihydrobenzofuran-5-ylthio)-1-(pent-4-ynyl)-1H-imidazo[4,5-c]pyridin-4-amine], the IC50 was more than 10000 nM.

With `NC(=O)CCCn1c(Sc2cc3c(cc2I)OCO3)nc2c(N)nccc21` [Compound 66, 4-(4-amino-2-(6-iodobenzo[d][1,3]dioxol-5-ylthio)-1H-imidazo[4,5-c]pyridin-1-yl)butanamide], the IC50 was 100 to 1000 nM.

Molecule `N#CCCCCn1c(Sc2cc3c(cc2Br)OCO3)nc2c(N)nccc21` [Compound 29, 5-(4-amino-2-(6-bromobenzo[d][1,3]dioxol-5-ylthio)-1H-imidazo[4,5-c]pyridin-1-yl)pentanenitrile] gave an IC50 of 1000 to 10000 nM.

On to `N#CCCCCn1c(Sc2cc3c(cc2I)OCO3)nc2c(N)nccc21` [Compound 30, 5-(4-amino-2-(6-iodobenzo[d][1,3]dioxol-5-ylthio)-1H-imidazo[4,5-c]pyridin-1-yl)pentanenitrile], for which the IC50 lay within 100 to 1000 nM.

On to `C#CCCCn1c(Sc2cc(OC)ccc2C#N)nc2c(N)nccc21` [Compound 18, 2-(4-amino-1-(pent-4-ynyl)-1H-imidazo[4,5-c]pyridin-2-ylthio)-4-methoxybenzonitrile], for which the IC50 was 1000 to 10000 nM.

Take `NC(=O)CCCCn1c(Sc2cc3c(cc2I)OCO3)nc2c(N)nccc21` [Compound 68, 5-(4-amino-2-(6-iodobenzo[d][1,3]dioxol-5-ylthio)-1H-imidazo[4,5-c]pyridin-1-yl)pentanamide]: the IC50 is 100 to 1000 nM.

In turn, `CCC(CC)NCCCn1c(Sc2cc3c(cc2I)OCO3)nc2c(N)nccc21` [Compound 60, 2-(6-iodobenzo[d][1,3]dioxol-5-ylthio)-1-(3-(pentan-3-ylamino)propyl)-1H-imidazo[4,5-c]pyridin-4-amine] yielded an IC50 of 100 to 1000 nM.

In turn, `N#CCCCn1c(Sc2cc3c(cc2Br)OCO3)nc2c(N)nccc21` [Compound 27, 4-(4-amino-2-(6-bromobenzo[d][1,3]dioxol-5-ylthio)-1H-imidazo[4,5-c]pyridin-1-yl)butanenitrile] gave an IC50 of 1000 to 10000 nM.

`CC(C)OCCn1c(Sc2cc3c(cc2Br)OCO3)nc2c(N)nccc21` [Compound 61, 2-(6-bromobenzo[d][1,3]dioxol-5-ylthio)-1-(2-isopropoxyethyl)-1H-imidazo[4,5-c]pyridin-4-amine] registered an IC50 of 100 to 1000 nM.

In the case of `C#CCCCn1c(Sc2cccc(OC)c2)nc2c(N)nccc21` [Compound 11, 2-(3-methoxyphenylthio)-1-(pent-4-ynyl)-1H-imidazo[4,5-c]pyridin-4-amine], the IC50 was more than 10000 nM.

Molecule `C#CCCCn1c(Sc2cc(OC)ccc2I)nc2c(N)nccc21` [Compound 12, 2-(2-iodo-5-methoxyphenylthio)-1-(pent-4-ynyl)-1H-imidazo[4,5-c]pyridin-4-amine] showed an IC50 of 100 to 1000 nM.

As for `CCCCCn1c(Sc2cc3c(cc2I)OCO3)nc2c(N)nccc21` [Compound 4, 2-(6-iodobenzo[d][1,3]dioxol-5-ylthio)-1-pentyl-1H-imidazo[4,5-c]pyridin-4-amine], the IC50 was in the range of 100 to 1000 nM.

As to `C#CCCCn1c(Sc2cc3c(cc2I)OCCO3)nc2c(N)nccc21` [Compound 7, 2-(7-iodo-2,3-dihydrobenzo[b][1,4]dioxin-6-ylthio)-1-(pent-4-ynyl)-1H-imidazo[4,5-c]pyridin-4-amine], the IC50 was 100 to 1000 nM.

`C#CCCCn1c(Sc2cc(O)c(O)cc2I)nc2c(N)nccc21` [Compound 16, 4-(4-amino-1-(pent-4-ynyl)-1H-imidazo[4,5-c]pyridin-2-ylthio)-5-iodobenzene-1,2-diol] gave an IC50 of more than 10000 nM.

As to `COc1ccc(I)c(Sc2nc3c(N)nccc3n2CCCC#N)c1` [Compound 26, 4-(4-amino-2-(2-iodo-5-methoxyphenylthio)-1H-imidazo[4,5-c]pyridin-1-yl)butanenitrile], the IC50 was 1000 to 10000 nM.

As to `CN(C)Cc1cc2c(cc1Sc1nc3c(N)nccc3n1CCNCC(C)(C)C)OCO2` [Compound 115, 2-(6-((dimethylamino)methyl)benzo[d][1,3]dioxol-5-ylthio)-1-(2-(neopentylamino)ethyl)-1H-imidazo[4,5-c]pyridin-4-amine], the IC50 is more than 10000 nM.

The molecule `CC(=O)NCCCCn1c(Sc2cc3c(cc2I)OCO3)nc2c(N)nccc21` [Compound 76, N-(4-(4-amino-2-(6-iodobenzo[d][1,3]dioxol-5-ylthio)-1H-imidazo[4,5-c]pyridin-1-yl)butyl)acetamide] showed an IC50 of 100 to 1000 nM.

For `C#CCCCCn1c(Sc2cc3c(cc2Br)OCO3)nc2c(N)nccc21` [Compound 24, 2-(6-bromobenzo[d][1,3]dioxol-5-ylthio)-1-(hex-5-ynyl)-1H-imidazo[4,5-c]pyridin-4-amine], the IC50 is 1000 to 10000 nM.

In turn, `C#CCCn1c(Sc2cc3c(cc2I)OCO3)nc2c(N)nccc21` [Compound 23, 1-(but-3-ynyl)-2-(6-iodobenzo[d][1,3]dioxol-5-ylthio)-1H-imidazo[4,5-c]pyridin-4-amine] returned an IC50 of 100 to 1000 nM.

The molecule `COc1ccc(Br)c(Sc2nc3c(N)nccc3n2CCCNC(C)C)c1` [Compound 53, 2-(2-bromo-5-methoxyphenylthio)-1-(3-(isopropylamino)propyl)-1H-imidazo[4,5-c]pyridin-4-amine] gave an IC50 of 1000 to 10000 nM.

As to `CC(C)NCCCn1c(Sc2cc3c(cc2I)OCO3)nc2c(N)nccc21` [Compound 52, 2-(6-iodobenzo[d][1,3]dioxol-5-ylthio)-1-(3-(isopropylamino)propyl)-1H-imidazo[4,5-c]pyridin-4-amine], the IC50 lay within 100 to 1000 nM.

Take `C#CCCCCn1c(Sc2cc3c(cc2I)OCO3)nc2c(N)nccc21` [Compound 25, 1-(hex-5-ynyl)-2-(6-iodobenzo[d][1,3]dioxol-5-ylthio)-1H-imidazo[4,5-c]pyridin-4-amine]: the IC50 was in the range of 100 to 1000 nM.

In turn, `CC(C)NCCCn1c(Sc2cc3c(cc2Br)OCO3)nc2c(N)nccc21` [Compound 51, 2-(6-bromobenzo[d][1,3]dioxol-5-ylthio)-1-(3-(isopropylamino)propyl)-1H-imidazo[4,5-c]pyridin-4-amine] gave an IC50 of 1000 to 10000 nM.

Take `C#CCCCn1c(Sc2cc(F)c(F)cc2I)nc2c(N)nccc21` [Compound 21, 2-(4,5-difluoro-2-iodophenylthio)-1-(pent-4-ynyl)-1H-imidazo[4,5-c]pyridin-4-amine]: the IC50 was more than 10000 nM.

Consider `CC(C)(C)NCCCn1c(Sc2cc3c(cc2I)OCO3)nc2c(N)nccc21` [Compound 58, 1-(3-(tert-butylamino)propyl)-2-(6-iodobenzo[d][1,3]dioxol-5-ylthio)-1H-imidazo[4,5-c]pyridin-4-amine], for which the IC50 was 100 to 1000 nM.

Regarding `CC(=O)NCCCn1c(Sc2cc3c(cc2I)OCO3)nc2c(N)nccc21` [Compound 74, N-(3-(4-amino-2-(6-iodobenzo[d][1,3]dioxol-5-ylthio)-1H-imidazo[4,5-c]pyridin-1-yl)propyl)acetamide], the IC50 fell in the range of 100 to 1000 nM.

In turn, `N#CCCCn1c(Sc2cc3c(cc2I)OCO3)nc2c(N)nccc21` [Compound 28, 4-(4-amino-2-(6-iodobenzo[d][1,3]dioxol-5-ylthio)-1H-imidazo[4,5-c]pyridin-1-yl)butanenitrile] gave an IC50 of 100 to 1000 nM.

`COc1ccc(I)c(Sc2nc3c(N)nccc3n2CCOC(C)C)c1` [Compound 64, 2-(2-iodo-5-methoxyphenylthio)-1-(2-isopropoxyethyl)-1H-imidazo[4,5-c]pyridin-4-amine]: the IC50 lay in the range of 1000 to 10000 nM.

As to `CC(C)OCCn1c(Sc2cc3c(cc2I)OCO3)nc2c(N)nccc21` [Compound 62, 2-(6-iodobenzo[d][1,3]dioxol-5-ylthio)-1-(2-isopropoxyethyl)-1H-imidazo[4,5-c]pyridin-4-amine], the IC50 is 100 to 1000 nM.

As to `NC(=O)CCCCCn1c(Sc2cc3c(cc2I)OCO3)nc2c(N)nccc21` [Compound 70, 6-(4-amino-2-(6-iodobenzo[d][1,3]dioxol-5-ylthio)-1H-imidazo[4,5-c]pyridin-1-yl)hexanamide], the IC50 lay in the range of 100 to 1000 nM.

`C#CCCn1c(Sc2cc3c(cc2Br)OCO3)nc2c(N)nccc21` [Compound 22, 2-(6-bromobenzo[d][1,3]dioxol-5-ylthio)-1-(but-3-ynyl)-1H-imidazo[4,5-c]pyridin-4-amine] yielded an IC50 of 1000 to 10000 nM.

Regarding `CC(=O)NCCn1c(Sc2cc3c(cc2I)OCO3)nc2c(N)nccc21` [Compound 72, N-(2-(4-amino-2-(6-iodobenzo[d][1,3]dioxol-5-ylthio)-1H-imidazo[4,5-c]pyridin-1-yl)ethyl)acetamide], the IC50 was in the range of 100 to 1000 nM.

Regarding `COc1ccc(I)c(Sc2nc3c(N)nccc3n2CCCNC(C)C)c1` [Compound 54, 2-(2-iodo-5-methoxyphenylthio)-1-(3-(isopropylamino)propyl)-1H-imidazo[4,5-c]pyridin-4-amine], the IC50 is 1000 to 10000 nM.

The next test addresses T1, HSP90. Briefly: Hsp90 chaperone assay (refolding of heat-denatured luciferase).
Settings: not given
In kind it is biochemical. The procedure:
(a) An In Vitro Assay which Determines the Ability of a Test Compound to Inhibit Hsp90 Chaperone Activity.
The Hsp90 chaperone assay was performed to measure the ability of HSP90 protein to refold the heat-denatured luciferase protein. HSP90 was first incubated with different concentrations of test compounds in denaturation buffer (25 mM Tris, pH7.5, 8 mM MgSO4, 0.01% bovine gamma globulin and 10% glycerol) at room temperature for 30 min. Luciferase protein was added to denaturation mix and incubated at 50° C. for 8 min. The final concentration of HSP90 and luciferase in denaturation mixture were 0.375 μM and 0.125 μM respectively. A 5 μl sample of the denatured mix was diluted into 25 μl of renaturation buffer (25 mM Tris, pH7.5, 8 mM MgSO4, 0.01% bovine gamma globulin and 10% glycerol, 0.5 mM ATP, 2 mM DTT, 5 mM KCl, 0.3 μM HSP70 and 0.15 μM HSP40). The renaturation reaction was incubated at room temperature for 150 min, followed by dilution of 10 μl of the renatured sample into 90 μl of luciferin reagent (Luclite, PerkinElmer Life Science). The mixture was incubated at dark for 5 min before reading the luminescence signal on a TopCount plate reader (PerkinElmer Life Science).
Regarding `C#CCCCn1c(Sc2cccc(OC)c2)nc2c(N)nccc21` [Compound 11, 2-(3-methoxyphenylthio)-1-(pent-4-ynyl)-1H-imidazo[4,5-c]pyridin-4-amine], the IC50 was not below 10000 nM.

Regarding `C#CCCCn1c(Sc2cc(OC)ccc2I)nc2c(N)nccc21` [Compound 12, 2-(2-iodo-5-methoxyphenylthio)-1-(pent-4-ynyl)-1H-imidazo[4,5-c]pyridin-4-amine], the IC50 was 1000 to 10000 nM.
